Experimental data published in US5306720A, “Piperidine derivative and pharmaceutical composition” (priority 1985, dated 1994).
Where a name gives a salt, the structure may show the parent alone.

Target: T1, acetylcholinesterase (Mus musculus, UniProt P21836)
T1 construct: Using a mouse brain homogenate as a source of acetylcholinesterase; from tissue; host or cells: mouse brain homogenate
Experiment: biochemical
Assay type: biochemical
Details: mouse brain homogenate; thiocholine method, absorbance at 412 nm; read-out: AChE inhibitory activity IC50
Procedure: Acetylcholinesterase Inhibitory Action using Mouse Brain Homogenate
Using a mouse brain homogenate as a source of acetylcholinesterase, the esterase activity was measured by a thiocholine method. Acetylcholine as a substrate, the compound of the invention as a substance to test and 5,5'-dithio-bis(2-nitrobenzoic acid), called also DTNB, were added to the mouse brain homogenate. After incubation, thiocholine produced was reacted with DTNB to form a yellow product.

T1 sequence (P21836 32-614): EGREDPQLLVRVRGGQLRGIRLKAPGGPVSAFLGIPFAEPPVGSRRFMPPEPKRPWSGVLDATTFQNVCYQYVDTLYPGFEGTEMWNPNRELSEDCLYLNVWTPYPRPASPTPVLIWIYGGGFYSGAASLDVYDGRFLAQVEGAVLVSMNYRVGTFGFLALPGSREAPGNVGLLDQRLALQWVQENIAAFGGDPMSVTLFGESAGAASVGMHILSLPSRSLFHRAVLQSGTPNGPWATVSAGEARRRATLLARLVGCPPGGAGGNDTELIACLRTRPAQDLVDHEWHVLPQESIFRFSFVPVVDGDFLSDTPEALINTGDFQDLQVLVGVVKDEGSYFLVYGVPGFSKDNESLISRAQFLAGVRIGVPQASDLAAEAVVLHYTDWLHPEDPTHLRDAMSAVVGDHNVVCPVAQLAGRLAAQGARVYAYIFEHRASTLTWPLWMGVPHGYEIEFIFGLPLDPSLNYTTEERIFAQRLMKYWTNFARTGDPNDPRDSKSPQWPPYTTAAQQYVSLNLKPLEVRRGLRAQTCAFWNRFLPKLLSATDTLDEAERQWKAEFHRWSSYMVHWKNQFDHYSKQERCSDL

With `O=C1c2ccc(Cl)cc2C(=O)N1CCC1CCN(Cc2ccccc2)CC1` [Example 133] as the compound, how does the IC50 read?
The IC50 was 7.9 nM.

Which IC50 does the source give for `CCN(CC)C(=O)c1ccc2c(c1)C(=O)N(CCC1CCN(Cc3ccccc3)CC1)C2=O` [Example 52] here?
The IC50 was 1.5 nM.

For `O=C(NCCC1CCN(Cc2ccccc2)CC1)c1ccc([N+](=O)[O-])cc1` [Example 71], which IC50 is on record?
The IC50 was 55 nM.

`CN(CCC1CCN(Cc2ccccc2)CC1)C(=O)c1ccc(S(=O)(=O)C2CCCC2)cc1` [Example 6, N-methyl-N-[4'-(1'-benzylpiperidine)ethyl]-4-cyclopentylsulfonylbenzamide.hydrochloride] was tested. Which IC50 did it give?
Its IC50 is 21 nM.

Which IC50 does the source give for `O=c1c2cc3c(=O)n(CCC4CCN(Cc5ccccc5)CC4)c(=O)c3cc2c(=O)n1CCC1CCN(Cc2ccccc2)CC1` [Example 112] here?
The IC50 was 0.15 nM.

With `O=C1c2ccc([N+](=O)[O-])cc2C(=O)N1CCC1CCN(Cc2ccccc2)CC1` [Example 7, N-[2-(N'-benzylpiperidino-4)ethyl]-4-nitrophthalimide.hydrochloride] as the compound, how does the IC50 read?
The IC50 was 14 nM.

With `O=C(NCCC1CCN(Cc2ccccc2)CC1)c1ccc(SCCl)cc1` [Example 115] as the compound, how does the IC50 read?
The IC50 was 6.7 nM.

With `O=C(NCCC1CCN(Cc2ccccc2)CC1)c1ccc(C(=O)NCc2ccccc2)cc1` [Example 26] as the compound, how does the IC50 read?
Its IC50 is 9 nM.

Which IC50 does the source give for `Cc1ccc2[nH]c(=O)n(CCC3CCN(Cc4ccccc4)CC3)c(=O)c2c1` [Example 113] here?
The IC50 was 4.7 nM.

With `CN(CCC1CCN(Cc2ccccc2)CC1)C(=O)c1ccncc1` [Example 5, N-methyl-N-[4'-(1'-benzylpiperidyl)ethyl] isonicotinic acid amide hydrochloride] as the compound, how does the IC50 read?
The IC50 was 88 nM.

How did the IC50 turn out when `CC(=O)Nc1ccc2c(c1)C(=O)N(CCC1CCN(Cc3ccccc3)CC1)C2=O` [Example 50] was run?
The IC50 was 2.8 nM.

Which IC50 does the source give for `O=C1c2cc3ccccc3cc2C(=O)N1CCC1CCN(Cc2ccccc2)CC1` [Example 57] here?
Its IC50 is 1.2 nM.

`O=C(NCc1ccccc1)c1ccc2c(c1)C(=O)N(CCC1CCN(Cc3ccccc3)CC1)C2=O` [Example 51] was tested. Which IC50 did it give?
Its IC50 is 2.2 nM.

Which IC50 does the source give for `O=C(NCCC1CCN(Cc2ccccc2)CC1)c1ccc2c(c1)C(=O)c1ccccc1C2=O` [Example 25] here?
Its IC50 is 4.5 nM.

Which IC50 does the source give for `O=C(NCCC1CCN(Cc2ccccc2)CC1)c1ccc(SCc2ccccc2)cc1` [Example 88] here?
Its IC50 is 49 nM.

How did the IC50 turn out when `CN(CCC1CCN(Cc2ccc(O)cc2)CC1)C(=O)c1ccc(S(=O)(=O)Cc2ccccc2)cc1` [Example 41] was run?
The IC50 was 0.8 nM.

`CN(CCC1CCN(Cc2ccccc2)CC1)C(=O)c1ccc(S(=O)(=O)Cc2ccccc2)cc1` [Example 4, N-methyl-N-[4'-(1'-benzylpiperidine)ethyl]-4-benzylsulfonylbenzamide, hydrochloride] was tested. Which IC50 did it give?
Its IC50 is 0.6 nM.

How did the IC50 turn out when `O=c1[nH]c2cc(Cl)ccc2c(=O)n1CCC1CCN(Cc2ccccc2)CC1` [Example 68] was run?
The IC50 was 4.5 nM.

`O=C(c1ccccc1)c1ccc2c(c1)C(=O)N(CCC1CCN(Cc3ccccc3)CC1)C2=O` [Example 53] was tested. Which IC50 did it give?
The IC50 was 2.4 nM.

Which IC50 does the source give for `COc1cc2c(cc1Cl)C(=O)N(CCC1CCN(Cc3ccccc3)CC1)C2=O` [Example 56] here?
Its IC50 is 3.3 nM.

For `O=C1c2nccnc2C(=O)N1CCC1CCN(Cc2ccccc2)CC1` [Example 8, N-[2-(N'-benzylpiperidino-4)ethyl]-2,3-pyrazinedicarboxylic acid imide], which IC50 is on record?
Its IC50 is 80 nM.

`CN(CCC1CCN(Cc2ccccc2)CC1)C(=O)c1ccc(-c2ccccc2)cc1` [Example 32] was tested. Which IC50 did it give?
The IC50 was 4.3 nM.

Which IC50 does the source give for `O=C1c2cccc([N+](=O)[O-])c2C(=O)N1CCC1CCN(Cc2ccccc2)CC1` [Example 47] here?
Its IC50 is 9 nM.

How did the IC50 turn out when `O=C1c2cccnc2C(=O)N1CCC1CCN(Cc2ccccc2)CC1` [Example 58] was run?
Its IC50 is 13 nM.

For `O=C(Nc1ccc2c(c1)C(=O)N(CCC1CCN(Cc3ccccc3)CC1)C2=O)c1ccccc1` [Example 111], which IC50 is on record?
Its IC50 is 0.88 nM.

Which IC50 does the source give for `O=C1c2cccc3cccc(c23)C(=O)N1CCC1CCN(Cc2ccccc2)CC1` [Example 9, N-[2-(N'-benzylpiperidino-4)ethyl]-1,8-naphthalimide] here?
Its IC50 is 5.5 nM.

Same assay, conditions: read-out: AChE inhibitory activity IC50

With `COc1ccc2c(c1)C(=O)N(CCC1CCN(Cc3ccccc3)CC1)C2=O` [Example 54] as the compound, how does the IC50 read?
The IC50 was 8 nM.

Tested on: ddY male mouse
Experiment: Acute Toxicity Test for ddY Male Mouse
Assay type: in vivo
Details: oral to mouse, 100 mg (mg/kg), ddY male mice
Procedure: Acute Toxicity Test for ddY Male Mouse
Acute toxicity test was carried out using ddY male mice.

For `CN(CCC1CCN(Cc2ccccc2)CC1)C(=O)c1ccncc1` [Example 5, N-methyl-N-[4'-(1'-benzylpiperidyl)ethyl] isonicotinic acid amide hydrochloride], which “number of deaths / number of animals used, 100 mg” value (“number of deaths / number … 100 mg” below) is on record?
Its value is 1/4.

`O=c1[nH]c2ccccc2c(=O)n1CCC1CCN(Cc2ccccc2)CC1` [Example 10, 3-[2-(1-benzyl-4-piperidino)ethyl]-2,4-(1H,3H)-quinazolidione.hydrochloride] was tested. Which “number of deaths / number … 100 mg” value did it give?
Its value is 3/4.

Which “number of deaths / number … 100 mg” value does the source give for `CN(CCC1CCN(Cc2ccccc2)CC1)C(=O)c1ccc(S(=O)(=O)Cc2ccccc2)cc1` [Example 4, N-methyl-N-[4'-(1'-benzylpiperidine)ethyl]-4-benzylsulfonylbenzamide, hydrochloride] here?
The value was 0/3.

Same assay, conditions: oral to mouse, 300 mg (mg/kg), ddY male mice

For `O=C1c2ccc([N+](=O)[O-])cc2C(=O)N1CCC1CCN(Cc2ccccc2)CC1` [Example 7, N-[2-(N'-benzylpiperidino-4)ethyl]-4-nitrophthalimide.hydrochloride], which “number of deaths / number of animals used, 300 mg” value (“number of deaths / number … 300 mg” below) is on record?
The value was 0/3.

Which “number of deaths / number … 300 mg” value does the source give for `CN(CCC1CCN(Cc2ccccc2)CC1)C(=O)c1ccncc1` [Example 5, N-methyl-N-[4'-(1'-benzylpiperidyl)ethyl] isonicotinic acid amide hydrochloride] here?
The value was 4/4.

With `CN(CCC1CCN(Cc2ccccc2)CC1)C(=O)c1ccc(S(=O)(=O)Cc2ccccc2)cc1` [Example 4, N-methyl-N-[4'-(1'-benzylpiperidine)ethyl]-4-benzylsulfonylbenzamide, hydrochloride] as the compound, how does the “number of deaths / number … 300 mg” value read?
The value was 2/4.
